{
  "source": "paper PMC4574636",
  "about": "(Biochemical pharmacology, 2015)",
  "key": {"[1]": {"biological_target": "T1, human AOX1 I1085A+ V1016R (Homo sapiens, UniProt Q06278, I1085A/V1016R)", "T1 sequence (Q06278 1-1338 V1016R/I1085A)": "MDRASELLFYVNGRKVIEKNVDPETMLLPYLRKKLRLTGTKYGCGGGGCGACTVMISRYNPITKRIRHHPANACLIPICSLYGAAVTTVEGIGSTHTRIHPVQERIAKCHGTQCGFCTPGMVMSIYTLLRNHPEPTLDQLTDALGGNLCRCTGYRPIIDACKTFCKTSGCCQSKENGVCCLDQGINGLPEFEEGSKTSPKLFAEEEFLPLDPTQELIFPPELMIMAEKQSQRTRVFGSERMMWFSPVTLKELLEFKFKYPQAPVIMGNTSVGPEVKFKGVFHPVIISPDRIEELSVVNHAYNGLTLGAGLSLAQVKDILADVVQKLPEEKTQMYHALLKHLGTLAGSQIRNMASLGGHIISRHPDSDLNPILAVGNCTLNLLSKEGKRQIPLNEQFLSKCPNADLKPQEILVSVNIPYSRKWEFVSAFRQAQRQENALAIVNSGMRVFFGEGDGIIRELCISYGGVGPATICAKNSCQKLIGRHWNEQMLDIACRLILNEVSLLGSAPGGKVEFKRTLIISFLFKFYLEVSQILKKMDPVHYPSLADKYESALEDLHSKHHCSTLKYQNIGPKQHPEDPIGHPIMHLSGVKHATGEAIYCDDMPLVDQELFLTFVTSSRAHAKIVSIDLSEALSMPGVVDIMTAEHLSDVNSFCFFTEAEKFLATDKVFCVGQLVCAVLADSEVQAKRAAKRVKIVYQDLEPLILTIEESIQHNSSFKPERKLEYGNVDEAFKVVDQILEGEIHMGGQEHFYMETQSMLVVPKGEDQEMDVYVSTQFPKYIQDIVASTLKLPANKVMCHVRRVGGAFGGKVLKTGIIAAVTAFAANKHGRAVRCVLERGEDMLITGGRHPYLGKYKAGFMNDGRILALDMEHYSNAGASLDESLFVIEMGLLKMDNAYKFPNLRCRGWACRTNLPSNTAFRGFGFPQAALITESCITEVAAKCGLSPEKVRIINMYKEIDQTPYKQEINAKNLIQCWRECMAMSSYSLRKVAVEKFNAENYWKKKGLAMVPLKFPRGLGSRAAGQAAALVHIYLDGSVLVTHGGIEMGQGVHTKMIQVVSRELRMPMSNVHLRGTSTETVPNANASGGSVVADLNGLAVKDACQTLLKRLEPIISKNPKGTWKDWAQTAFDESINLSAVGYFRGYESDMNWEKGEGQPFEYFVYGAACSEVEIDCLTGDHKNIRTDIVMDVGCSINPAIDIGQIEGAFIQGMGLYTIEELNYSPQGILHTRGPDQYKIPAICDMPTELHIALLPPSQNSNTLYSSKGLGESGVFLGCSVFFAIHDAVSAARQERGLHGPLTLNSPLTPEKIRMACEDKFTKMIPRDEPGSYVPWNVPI", "settings": "I1085A+ V1016R double mutant, Figure 5"}, "aldehyde oxidase (AOX)": {"biological_target": "T2, aldehyde oxidase (AOX) (Cavia porcellus, UniProt H9TB17)", "T2 sequence (H9TB17 1-1332)": "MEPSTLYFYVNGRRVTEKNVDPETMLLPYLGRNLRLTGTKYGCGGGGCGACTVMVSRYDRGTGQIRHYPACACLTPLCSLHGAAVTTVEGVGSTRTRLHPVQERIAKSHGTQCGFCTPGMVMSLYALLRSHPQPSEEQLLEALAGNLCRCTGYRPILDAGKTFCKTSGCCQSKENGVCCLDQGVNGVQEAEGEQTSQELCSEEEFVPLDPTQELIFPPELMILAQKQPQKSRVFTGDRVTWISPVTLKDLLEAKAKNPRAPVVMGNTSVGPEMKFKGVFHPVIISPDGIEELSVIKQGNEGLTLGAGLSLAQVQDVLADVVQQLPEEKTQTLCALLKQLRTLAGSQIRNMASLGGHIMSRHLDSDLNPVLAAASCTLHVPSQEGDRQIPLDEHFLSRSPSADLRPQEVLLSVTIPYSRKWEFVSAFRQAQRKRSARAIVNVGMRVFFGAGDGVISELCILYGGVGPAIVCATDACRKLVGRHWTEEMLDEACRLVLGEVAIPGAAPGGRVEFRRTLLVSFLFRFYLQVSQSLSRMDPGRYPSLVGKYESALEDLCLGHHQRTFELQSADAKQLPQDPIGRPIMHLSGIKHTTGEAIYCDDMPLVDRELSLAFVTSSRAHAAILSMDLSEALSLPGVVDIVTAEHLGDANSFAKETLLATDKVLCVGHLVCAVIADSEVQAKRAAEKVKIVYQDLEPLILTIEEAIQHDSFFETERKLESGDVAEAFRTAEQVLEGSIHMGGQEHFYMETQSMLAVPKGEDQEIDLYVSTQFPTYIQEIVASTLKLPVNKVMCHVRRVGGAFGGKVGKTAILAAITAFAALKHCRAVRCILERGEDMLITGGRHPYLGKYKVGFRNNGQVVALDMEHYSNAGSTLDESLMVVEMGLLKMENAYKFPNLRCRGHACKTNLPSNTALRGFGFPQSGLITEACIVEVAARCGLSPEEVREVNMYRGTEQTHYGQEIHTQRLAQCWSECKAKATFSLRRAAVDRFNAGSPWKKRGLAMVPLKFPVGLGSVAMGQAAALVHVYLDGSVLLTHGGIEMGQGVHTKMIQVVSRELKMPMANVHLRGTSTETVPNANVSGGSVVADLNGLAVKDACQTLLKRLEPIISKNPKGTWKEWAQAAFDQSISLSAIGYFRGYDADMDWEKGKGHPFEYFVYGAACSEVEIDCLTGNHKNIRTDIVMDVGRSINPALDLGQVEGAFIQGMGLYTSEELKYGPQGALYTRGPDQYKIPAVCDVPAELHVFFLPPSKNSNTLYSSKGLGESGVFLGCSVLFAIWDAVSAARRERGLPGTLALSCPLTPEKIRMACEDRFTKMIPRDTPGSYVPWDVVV", "settings": "guinea pig liver cytosol, mean ± SEM; estimate, saturation incomplete"}, "[2]": {"settings": "cited from earlier work"}},
  "data": [
    {"compound": "CN(Cc1cnc2nc(N)nc(N)c2n1)c1ccc(C(=O)N[C@@H](CCC(=O)O)C(=O)O)cc1", "note": "[Methotrexate, 4-amino-N^1^0-methylpteroglutamic acid]", "values": [
      {"measurement": "Km / affinity vs wild type", "setting": "[1]", "value": "decreased affinity for methotrexate compared to wild type AOX1"},
      {"measurement": "Methotrexate hydroxylation activity", "setting": "[1]", "value": "significant decrease in activity compared to the wild type and I1085A"},
      {"measurement": "Vmax", "setting": "aldehyde oxidase (AOX)", "value": "70 ± 10", "unit": "pmol/min/mg"},
      {"measurement": "7-hydroxymethotrexate in vivo", "setting": "[2]; conventional dose levels of methotrexate in primates", "value": "not detected"},
      {"measurement": "Parent compound excreted as 7-hydroxymethotrexate", "setting": "[2]; high dose (> 50 mg methotrexate/kg) therapy regimes", "value": "≤ 33", "unit": "%"}
    ]}
  ]
}
